The text below walks through data of ChEMBL document CHEMBL5247651, “Oxadiazolopyridine Derivatives as Efficacious Mitochondrial Uncouplers in the Prevention of Diet-Induced Obesity” (J Med Chem, 2023).

Activity calls are given as the source filed them. No cut-off for these calls is given here.

Data set [1] can be described thus: Induction of mitochondrial uncoupling activity in rat L6 cells assessed as increase in oxygen consumption rate measured after 90 mins by agilent Seahorse XF analyzer. It is filed as functional, cell-based.
Data set [2] is described as follows: (§1) Induction of mitochondrial uncoupling activity in rat L6 cells assessed as increase in oxygen consumption rate at 0.37 to 200 uM measured after 90 mins by agilent Seahorse XF analyzer relative to BAM15. It is filed as functional. To be noted: dose 0.37-200 µM, 1.5 h.
Data set [3] has as its system L6. To be noted: Rattus norvegicus, time 90.0 min.
Data set [4] relates to L6. The data set is described as §1. In kind it is functional. To be noted: dose 0.37-200 µM.
Data set [5] can be described thus: Half life in C57BL/6 mouse at 10 mg/kg, po administered via gavage measured upto 24 hrs by LC/MS-MS analysis. In kind it is ADME, organism-based. To be noted: in vivo.
The nature of data set [6]: Cmax in C57BL/6 mouse at 10 mg/kg, po administered via gavage measured upto 24 hrs by LC/MS-MS analysis. It is filed as ADME, organism-based. Further details: dose 10 mg/kg, time < 24 hrs, route po. To be noted: in vivo.
For data set [7], the system named is Mus musculus. As to the kind of experiment: Anti-obesity activity against HFD-induced C57BL/6J mouse model assessed as reduction in diet-induced weight gain at 125 mg/kg/day measured after 8 weeks. In kind it is functional. Further details: scale not given: the % may be the effect or the level left.
For data set [8], the system named is Mus musculus. Description: Anti-obesity activity against HFD-induced C57BL/6 mouse model assessed as reduction in body fat mass at 5 mg/kg, po via gavage administered 3 times a week measured after 6 weeks. It is filed as functional. Further details: scale not given: the % may be the effect or the level left.

Broadly, the EC50 is the concentration at which the effect is half-maximal. By pEC50 is commonly meant the EC50 on a negative log10 scale, so that one unit is a factor of ten. In the case of `Oc1nc2nonc2cc1Nc1ccc(C(F)(F)F)nc1`, in data set [1], the EC50 was determined as 20 µM and the pEC50 came to 4.7. Besides, in data set [2], the Activity is 26%.
For the compound `CS(=O)(=O)c1ccc(Nc2cc3nonc3nc2O)cc1`, the pEC50 result in data set [3] was “inactive”. The result in data set [4] was inactive.
Turning to `Oc1nc2nonc2cc1Nc1ccc(OC(F)(F)F)cc1`, the pEC50 in data set [1] amounted to 5.8. For the same compound, the Activity in data set [2] was found to be 14%.
For the compound `Oc1nc2nonc2cc1Nc1ccc(S(F)(F)(F)(F)F)cc1`, in data set [1], the pEC50 was 6.2. In addition, in data set [2], the Activity came to 4%.
Turning to `Oc1nc2nonc2cc1Nc1ccc(C(F)(F)F)c(F)c1`, the pEC50 in data set [1] came out at 6.1. Moreover, in data set [2], the Activity was found to be 10%.
For orientation: Cmax means the peak of the concentration-time curve. `Oc1nc2nonc2cc1Nc1cc(C(F)(F)F)ccc1C(F)(F)F`: in data set [1], the EC50 was found to be 1.5 µM and the pEC50 came out at 5.7. Moreover, the Activity in data set [2] was 72%. Besides, the t1/2 in data set [5] is 2.2 h. In data set [6], this compound showed a Cmax of 29 µM.
Turning to `Oc1nc2nonc2cc1Nc1c(F)cc(F)cc1F`, the pEC50 in data set [1] is 4.4. Besides, the Activity in data set [2] came out at 14%.
As for `CC(C)(C)c1ccccc1Nc1cc2nonc2nc1O`, the pEC50 entry in data set [3] was “inactive”. Further, in data set [4], the outcome was inactive.
As to `Oc1nc2nonc2cc1Nc1cccc(OC(F)(F)F)c1F`, in data set [1], the pEC50 is listed as 5.9. For the same compound, the Activity in data set [2] was found to be 30%.
Take `Oc1nc2nonc2cc1Nc1cc(C(F)(F)F)cc(C(F)(F)F)c1`: the pEC50 in data set [1] turned out to be 5.8. In addition, in data set [2], the Activity was determined as 35%.
For `Oc1nc2nonc2cc1Nc1cc(F)ccc1OC(F)(F)F`, in that order: 5.9 and 13%.
Regarding `O=C(Nc1ccc([N+](=O)[O-])cc1Cl)c1cc(Cl)ccc1O` [NICLOSAMIDE], the Activity in data set [7] stood at 25%.
As for `Oc1nc2nonc2cc1Nc1ccc(F)cc1OC(F)(F)F`, in data set [1], the pEC50 is 5.7. The Activity in data set [2] came to 14%.
In the same order, the values of `Oc1nc2nonc2cc1Nc1ccc(C(F)(F)F)cc1C(F)(F)F` are 6 and 34%.
In the case of `Oc1nc2nonc2cc1Nc1ccc(F)c(F)c1F`, the pEC50 entry in data set [3] was “inactive”. Further, in data set [2], the Activity amounted to 2%.
On to `Oc1nc2nonc2cc1Nc1cc(F)c(C(F)(F)F)cc1F`, for which the pEC50 in data set [1] was determined as 6.1. Also, in data set [2], the Activity turned out to be 26%.
For `Oc1nc2nonc2cc1Nc1cc(F)ccc1F`, in that order: 4.7 and 27%.
Regarding `Oc1nc2nonc2cc1Nc1cccc(OC(F)(F)F)c1`, the pEC50 in data set [1] was 5.3. Besides, the Activity in data set [2] came out at 17%.
Take `Cc1ccc(Nc2cc3nonc3nc2O)cc1`: in data set [3], the pEC50 entry is “inactive”. Besides, the result in data set [4] was inactive.
As for `O=S(=O)(c1ccc(Nc2cc3nonc3nc2O)cc1)C(F)(F)F`, the pEC50 in data set [1] was 6. The Activity in data set [2] was 25%.
For the compound `Oc1nc2nonc2cc1Nc1cc(C(F)(F)F)ccc1F`, in data set [1], the EC50 was 1.5 µM and the pEC50 is 5.4. Also, the Activity in data set [2] amounted to 54%. The compound also registered a t1/2 in data set [5] of 1 h. The compound further showed a Cmax in data set [6] of 46 µM.
`Oc1nc2nonc2cc1Nc1cccc(F)c1C(F)(F)F`: the pEC50 in data set [1] is listed as 5.3. In data set [2], the Activity stood at 26%.
As to `Oc1nc2nonc2cc1Nc1ccc(C(F)(F)F)cc1`, the EC50 in data set [1] stood at 6.9 µM. Further, in data set [2], the Activity is listed as 28%.
For `O=S(=O)(c1cccc(Nc2cc3nonc3nc2O)c1)C(F)(F)F`, the pEC50 in data set [1] is given as > 4. In addition, the Activity in data set [2] amounted to 13%.
On to `Oc1nc2nonc2cc1Nc1ccccc1OC(F)(F)F`, for which, in data set [3], the pEC50 result is “inactive”. Moreover, the result in data set [4] was inactive.
Take `O=C(Nc1cc(Cl)cc(Cl)c1)Nc1cc(Cl)cc(Cl)c1`: the Activity in data set [8] amounted to 35%.
On to `Oc1nc2nonc2cc1Nc1ccc(OC(F)(F)F)cc1C(F)(F)F`, for which, in data set [1], the EC50 is 3.1 µM and the pEC50 was 5.5. For the same compound, the Activity in data set [2] is 57%. Further, the t1/2 in data set [5] is > 24 h. The same compound displayed a Cmax in data set [6] of 10 µM.
Consider `Oc1nc2nonc2cc1Nc1cccc(C(F)(F)F)c1`, for which the pEC50 in data set [1] is 5.8. In addition, the Activity in data set [2] is reported as 14%.
Consider `Oc1nc2nonc2cc1Nc1c(F)cccc1F`, for which the pEC50 entry in data set [3] was “inactive”. Besides, in data set [2], the Activity is 6%.
Take `Oc1nc2nonc2cc1Nc1cc(F)cc(C(F)(F)F)c1`: in data set [1], the pEC50 worked out at 6.1. Also, in data set [2], the Activity is listed as 11%.
Turning to `Oc1nc2nonc2cc1Nc1cc(F)cc(OC(F)(F)F)c1`, in data set [3], the pEC50 result was “inactive”. Moreover, in data set [2], the Activity stood at 6%.
Regarding `Oc1nc2nonc2cc1Nc1cc(F)ccc1C(F)(F)F`, in data set [1], the EC50 turned out to be 7.8 µM and the pEC50 worked out at 5.1. Further, the Activity in data set [2] was 53%.
As for `Oc1nc2nonc2cc1Nc1cccc(S(F)(F)(F)(F)F)c1`, in data set [1], the pEC50 is given as 5.9. In data set [2], the Activity turned out to be 20%.
As to `Oc1nc2nonc2cc1Nc1cc(F)cc(F)c1`, the negative logarithm of the EC50 (pEC50) in data set [1] is recorded as 4.3. The Activity in data set [2] was found to be 24%.
Take `Oc1nc2nonc2cc1Nc1cc(F)c(C(F)(F)F)c(F)c1`: the pEC50 in data set [1] is 5.9. In addition, in data set [2], the Activity stood at 33%.
For the compound `Oc1nc2nonc2cc1Nc1ccc(C(F)(F)F)cc1F`, in data set [3], the pEC50 entry is “inactive”. Moreover, the Activity in data set [2] turned out to be 9%.
For `COc1ccc(Nc2cc3nonc3nc2O)cc1`, the pEC50 result in data set [3] is “inactive”. Moreover, in data set [4], the outcome was inactive.
For `Oc1nc2nonc2cc1Nc1ccc(OC(F)(F)C(F)F)cc1`, in data set [3], the pEC50 result was “inactive”. The result in data set [4] was inactive.
`Oc1nc2nonc2cc1Nc1cc(OC(F)(F)F)c(F)cc1F`: the pEC50 in data set [1] is 5.7. Moreover, the Activity in data set [2] was 58%.
As to `Oc1nc2nonc2cc1Nc1ccc(OC(F)(F)F)c(F)c1`, the pEC50 in data set [1] worked out at 5.6. For the same compound, the Activity in data set [2] was determined as 25%.
As for `Oc1nc2nonc2cc1Nc1ccc(F)cc1F`, the pEC50 result in data set [3] was “inactive”. Moreover, the outcome in data set [4] was inactive.
`Oc1nc2nonc2cc1Nc1ccccc1F`: the pEC50 result in data set [3] was “inactive”.
As for `Oc1nc2nonc2cc1Nc1ccc(F)cc1C(F)(F)F`, in data set [1], the pEC50 was 5.3. Further, in data set [2], the Activity turned out to be 29%.
For the compound `Oc1nc2nonc2cc1Nc1cccc(F)c1F`, in data set [3], the pEC50 result was “inactive”. Also, in data set [2], the Activity is 3%.
In the case of `Oc1nc2nonc2cc1Nc1c(F)cccc1C(F)(F)F`, the pEC50 in data set [1] worked out at 4.3. For the same compound, the Activity in data set [2] is on record as 10%.
Consider `Oc1nc2nonc2cc1Nc1ccc(F)c(F)c1`, for which the pEC50 in data set [1] turned out to be 4.2. Also, in data set [2], the Activity worked out at 17%.
For `Oc1nc2nonc2cc1Nc1ccc(C(F)(F)F)c(C(F)(F)F)c1`, in that order: 6 and 10%.
As for `Oc1nc2nonc2cc1Nc1cc(F)c(F)c(F)c1`, the pEC50 in data set [1] was found to be 5.6. Besides, in data set [2], the Activity came out at 21%.
Take `Oc1nc2nonc2cc1Nc1cccc(C(F)(F)F)c1F`: in data set [3], the pEC50 result is “inactive”. Also, in data set [2], the Activity is given as 3%.
With `Oc1nc2nonc2cc1Nc1ccccc1C(F)(F)F`, in data set [1], the pEC50 is 4.8. Also, in data set [2], the Activity is on record as 20%.
In the case of `Oc1nc2nonc2cc1Nc1cccc(F)c1`, the pEC50 result in data set [3] was “inactive”. In addition, in data set [2], the Activity is given as 3%.
Regarding `Oc1nc2nonc2cc1Nc1ccc(OC(F)(F)F)cc1F`, in data set [1], the pEC50 was determined as 5.8. Moreover, the Activity in data set [2] was determined as 11%.
Consider `Oc1nc2nonc2cc1Nc1cc(OC(F)(F)F)ccc1F`, for which, in data set [1], the EC50 stood at 3.4 µM and the pEC50 amounted to 5.5. Besides, in data set [2], the Activity is 59%.
For the compound `Oc1nc2nonc2cc1Nc1cc(C(F)(F)F)c(F)cc1F`, in data set [1], the EC50 was 1.4 µM and the pEC50 is 5.5. Further, the Activity in data set [2] is recorded as 51%. In addition, the t1/2 in data set [5] came out at 1.3 h. For the same compound, the Cmax in data set [6] stood at 25 µM.
On to `Oc1nc2nonc2cc1Nc1cccc(C(F)(F)F)c1C(F)(F)F`, for which, in data set [1], the pEC50 was found to be 5.7. Also, in data set [2], the Activity is on record as 11%.
Regarding `Oc1nc2nonc2cc1Nc1ccc(F)cc1`, in data set [3], the pEC50 result is “inactive”. In addition, the Activity in data set [2] was 6%.
`Oc1nc2nonc2cc1Nc1c(F)c(F)c(C(F)(F)F)c(F)c1F`: in data set [1], the EC50 was 2 µM and the pEC50 turned out to be 5.9. Further, in data set [2], the Activity is 69%. Further, the t1/2 in data set [5] was determined as 15.6 h. For the same compound, in data set [6], the Cmax turned out to be 21 µM.
